Experimental findings from ChEMBL document CHEMBL4219043, “Beyond the Rule of 5: Lessons Learned from AbbVie's Drugs and Compound Collection” (J Med Chem, 2018) are described below.

The structures appear in SMILES notation. ≈ marks a conversion by molar mass, not a printed value.

Series [1] has as its system Hepatitis C virus. The experiment in a line: Antiviral activity against HCV genotype 1a H77 infected in human HuH7 replicon cells after 3 days in absence of human plasma by luciferase reporter gene assay. Type of series: functional, organism-based, Hepacivirus hominis. The following applies: genotype 1a H77, Huh-7, 72 h. For orientation: In antiviral work, replicon cells carry a viral genome segment that copies itself.

The subject of series [2] is Hepatitis C virus. Briefly: Antiviral activity against HCV genotype 1a H77 infected in human HuH7 replicon cells after 3 days in presence of 40% human plasma by luciferase reporter gene assay. As to conditions: genotype 1a H77, Huh-7, 72 h. Format: functional, organism-based, Hepacivirus hominis.
In series [3] the test system is Hepatitis C virus. The experiment in a line: Antiviral activity against HCV genotype 1b Con1 infected in human HuH7 replicon cells after 3 days in absence of human plasma by luciferase reporter gene assay. Format: functional, organism-based, Hepacivirus hominis. As to conditions: isolate Con1, Huh-7, 72 h.
The subject of series [4] is Hepatitis C virus. The experiment in a line: Antiviral activity against HCV genotype 1b Con1 infected in human HuH7 replicon cells after 3 days in presence of 40% human plasma by luciferase reporter gene assay. The following applies: isolate Con1, Huh-7, 72 h. Format: functional, organism-based, Hepacivirus hominis.
Series [5] relates to Hepatitis C virus. The experiment in a line: Antiviral activity against HCV genotype 1a H77 harboring NS3 R155K mutant infected in human HuH7 replicon cells after 3 days by luciferase reporter gene assay. Type of series: functional, organism-based, Hepacivirus hominis. The following applies: genotype 1a H77, Huh-7, 72 h.
The test system of series [6] is Hepatitis C virus. The experiment in a line: Antiviral activity against HCV genotype 1a H77 harboring NS3 D168V mutant infected in human HuH7 replicon cells after 3 days by luciferase reporter gene assay. As to conditions: genotype 1a H77, Huh-7, 72 h. Format: functional, organism-based, Hepacivirus hominis.
Series [7] has as its system Hepatitis C virus. The experiment in a line: Antiviral activity against HCV genotype 1b Con1 harboring NS3 R155K mutant infected in human HuH7 replicon cells after 3 days by luciferase reporter gene assay. The following applies: isolate Con1, Huh-7, 72 h. Format: functional, organism-based, Hepacivirus hominis.
In series [8] the test system is Hepatitis C virus. The experiment in a line: Antiviral activity against HCV genotype 1b Con1 harboring NS3 D168V mutant infected in human HuH7 replicon cells after 3 days by luciferase reporter gene assay. Format: functional, organism-based, Hepacivirus hominis. The following applies: isolate Con1, Huh-7, 72 h.
Series [9] relates to Hepatitis C virus. Briefly: Resistance index, ratio of EC50 for HCV genotype 1a H77 harboring NS3 R155K mutant infected in human HuH7 replicon cells to EC50 for HCV genotype 1a H77 harboring wild type NS3 infected in human HuH7 replicon cells. Type of series: functional, Hepacivirus hominis.
Series [10] has as its system Hepatitis C virus. The experiment in a line: Resistance index, ratio of EC50 for HCV genotype 1a H77 harboring NS3 D168V mutant infected in human HuH7 replicon cells to EC50 for HCV genotype 1a H77 harboring wild type NS3 infected in human HuH7 replicon cells. Type of series: functional, Hepacivirus hominis.
Series [11] concerns Hepatitis C virus. Briefly: Resistance index, ratio of EC50 for HCV genotype 1b Con1 harboring NS3 R155K mutant infected in human HuH7 replicon cells to EC50 for HCV genotype 1b Con1 harboring wild type NS3 infected in human HuH7 replicon cells. Format: functional, Hepacivirus hominis, isolate Con1.
Series [12] concerns Hepatitis C virus. The experiment in a line: Resistance index, ratio of EC50 for HCV genotype 1b Con1 harboring NS3 D168V mutant infected in human HuH7 replicon cells to EC50 for HCV genotype 1b Con1 harboring wild type NS3 infected in human HuH7 replicon cells. Type of series: functional, Hepacivirus hominis, isolate Con1.
Series [13] is described as follows: Half life in dog at 1 mg/kg, iv by LC-MS/MS analysis. Format: ADME, organism-based, Canis lupus familiaris. As to conditions: in vivo.
Series [14] is described as follows: Plasma clearance in dog at 1 mg/kg, iv by LC-MS/MS analysis. Type of series: ADME, organism-based, Canis lupus familiaris.
Series [15] is described as follows: Half life in dog at 3 mg/kg, po by LC-MS/MS analysis. The following applies: in vivo. Type of series: ADME, organism-based, Canis lupus familiaris.
Series [16] has as its system Canis familiaris. Briefly: Dose normalized AUC in dog at 3 mg/kg, po after 24 hrs by LC-MS/MS analysis. Format: ADME, organism-based, Canis lupus familiaris. The following applies: in vivo.
The nature of series [17]: (§1) Oral bioavailability in dog at 3 mg/kg by LC-MS/MS analysis. Type of series: ADME, organism-based, Canis lupus familiaris. As to conditions: in vivo.
The subject of series [18] is Hepatitis C virus. Briefly: Ratio of EC50 in presence of 40% human plasma to EC50 in absence of human plasma for HCV genotype 1a H77 infected in human HuH7 replicon cells. Type of series: functional, Hepacivirus hominis.
The nature of series [19]: Solubility in pH 7.2 buffer. Format: physicochemical.
The nature of series [20]: Apparent permeability of the compound in human Caco2 cells. Format: ADME, cell-based. As to conditions: Caco-2.
Series [21] can be described thus: Half life in iv dosed rat by LC-MS/MS analysis. Format: ADME, organism-based. The following applies: in vivo.
A short description of series [22]: Plasma clearance in iv dosed rat by LC-MS/MS analysis. Format: ADME, organism-based.
Series [23] can be described thus: Half life in po dosed rat by LC-MS/MS analysis. Type of series: ADME, organism-based. As to conditions: in vivo.
The next series relates to Rattus norvegicus. The experiment in a line: Dose normalized AUC in po dosed rat after 24 hrs by LC-MS/MS analysis. Type of series: ADME, organism-based. As to conditions: in vivo.
A short description of series [24]: Oral bioavailability in rat by LC-MS/MS analysis. Type of series: ADME, organism-based. The following applies: in vivo.
The test system of series [25] is Canis familiaris. The description is as §1. Type of series: ADME, organism-based, Canis lupus familiaris. As to conditions: in vivo.
Series [26] deals with Canis familiaris. Briefly: Fraction of drug absorbed into portal vein in dog at 3 mg/kg, po by LC-MS/MS analysis. The following applies: in vivo. Type of series: ADME, organism-based, Canis lupus familiaris.
A short description of series [27]: Oral bioavailability in dog. The following applies: in vivo. Format: ADME, organism-based, Canis lupus familiaris.
Another series concerns RS4-11. Briefly: Antiproliferative activity against human RS4:11 cells in presence of 10% human serum. Type of series: functional, cell-based.
For another series, the system named is MOLT-4. The experiment in a line: Antiproliferative activity against human MOLT4 cells in presence of 10% human serum. Type of series: functional, cell-based.
In series [28] the target is Apoptosis regulator Bcl-2 (Homo sapiens, UniProt P10415). Briefly: Inhibition of Bcl2 (unknown origin).
Apoptosis regulator Bcl-2, sequence (P10415 whole entry): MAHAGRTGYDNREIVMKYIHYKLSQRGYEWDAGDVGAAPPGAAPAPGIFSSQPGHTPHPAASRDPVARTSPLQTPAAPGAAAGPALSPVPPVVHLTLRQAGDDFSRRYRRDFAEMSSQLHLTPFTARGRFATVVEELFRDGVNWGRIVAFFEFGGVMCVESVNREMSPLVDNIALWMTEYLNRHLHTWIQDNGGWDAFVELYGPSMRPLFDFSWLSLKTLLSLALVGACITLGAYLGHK
Series [29] in a line: Ratio of EC50 for HCV genotype 3a infected in human HuH7 replicon cells to EC50 for HCV genotype 1a H77 infected in human HuH7 replicon cells. Format: functional.
The subject of series [30] is Hepatitis C virus. Briefly: Antiviral activity against HCV genotype 3a infected in human HuH7 replicon cells after 3 days in absence of human plasma by luciferase reporter gene assay. Type of series: functional, organism-based, Hepacivirus hominis. The following applies: Huh-7, 72 h.
Series [31] can be described thus: Apparent permeability of the compound by PAMPA. Type of series: ADME. (In general: PAMPA measures passive passage across an artificial lipid membrane.)

Turning to `Cc1cc(C(=O)N[C@H]2CCCCC/C=C\[C@@H]3C[C@@]3(C(=O)NS(=O)(=O)C3CC3)NC(=O)[C@@H]3C[C@@H](Oc4nc5cc(F)ccc5nc4C)CN3C2=O)no1`, the concentration giving a half-maximal response (EC50) (in general, the concentration that produces a half-maximal response) in the series with Hepatitis C virus [1] was found to be 1.1 nM; in the series on Hepatitis C virus [2], 11 nM; with Hepatitis C virus [3], 0.8 nM; in the series with Hepatitis C virus [4], 7 nM; in the series with Hepatitis C virus [5], 2 nM; with Hepatitis C virus [6] it was 41 nM. Besides, the EC50 is 1.6 nM in the series on Hepatitis C virus [7] and 3 nM with Hepatitis C virus [8]. For the same compound, the “Ratio EC50” value in the series with Hepatitis C virus [9] is on record as 7; with Hepatitis C virus [10] it was 146; with Hepatitis C virus [11] it was 2; in the series on Hepatitis C virus [12], 4; with Hepatitis C virus [18], 6 - 35. The half-life in series [13] and in series [15] was 2 h in each case. For the same compound, the clearance (commonly the rate of elimination divided by the concentration) in series [14] is 1.17 mL/min/kg. For the same compound, the AUC/dose with Canis familiaris [16] stood at 18 µg·h/mL. Besides, the bioavailability in series [17] worked out at 123%. In addition, the Solubility (commonly the concentration that dissolves in the medium under given conditions) in [19] was more than 500 µM. In addition, the Papp (commonly the rate of passage across a membrane or cell layer, normalised by area and donor concentration) in series [20] was determined as 2.8 ×10⁻⁶ cm/s.

Regarding `Cc1cc(C(=O)N[C@H]2CCCCC/C=C\[C@@H]3C[C@@]3(C(=O)NS(=O)(=O)C3CC3)NC(=O)[C@@H]3C[C@@H](Oc4nc5ccccc5nc4C(F)(F)F)CN3C2=O)no1`, the EC50 in the series on Hepatitis C virus [1] was determined as 0.5 nM; with Hepatitis C virus [2] it was 12 nM; in the series with Hepatitis C virus [3], 0.4 nM; in the series on Hepatitis C virus [4] it was 10 nM; in the series on Hepatitis C virus [5], 0.4 nM; with Hepatitis C virus [6], 33 nM. In addition, the results for the concentration for a half-maximal effect (EC50) with Hepatitis C virus [7] and in the series with Hepatitis C virus [8] were 0.7 nM and 2 nM, respectively. For the same compound, the “Ratio EC50” value with Hepatitis C virus [9] is given as 4; with Hepatitis C virus [10], 290; in the series with Hepatitis C virus [11], 2; with Hepatitis C virus [12], 6; in the series on Hepatitis C virus [18] it was 6 - 35. The half-life (as a rule, the time needed for the level to fall by half in the phase considered) was 1.2 h in series [21], 1.8 h in series [23], 1 h in series [13] and 1.5 h in [15]. In addition, the clearance in series [22] was 3.5 mL/min/kg; in series [14], 5.67 mL/min/kg. Further, the AUC/dose in the series on Rattus norvegicus was 4.75 µg·h/mL; in the series on Canis familiaris [16], 6.76 µg·h/mL. In addition, the bioavailability in series [24] stood at 99.5%. Further, in the series on Canis familiaris [25], the F is 200%. In the series on Canis familiaris [26], the FaFg amounted to 1.5. In series [19], this compound had a Solubility of 150 µM (≈ 116 µg/mL). For the same compound, the Papp in series [20] turned out to be 5.4 ×10⁻⁶ cm/s.

On to `CC1(C)CCC(c2ccc(Cl)cc2)=C(CN2CCN(c3ccc(C(=O)NS(=O)(=O)c4ccc(N[C@H](CCN5CCOCC5)CSc5ccccc5)c(S(=O)(=O)C(F)(F)F)c4)cc3)CC2)C1` [NAVITOCLAX], for which, in [27], the bioavailability was found to be 48%. For the same compound, the 50% effective concentration (EC50) in the series with RS4-11 amounted to 112 nM; in the series with MOLT-4, 303 nM.

Turning to `CO[C@H]1CC[C@H](CNc2ccc(S(=O)(=O)NC(=O)c3ccc(N4CCN(CC5=C(c6ccc(Cl)cc6)CC(C)(C)CC5)CC4)cc3Oc3cnc4[nH]ccc4c3)cc2[N+](=O)[O-])CC1` [A-1211212], the Ki (usually the equilibrium dissociation constant of an inhibitor or competing ligand from its target) in [28] is less than 0.01 nM. In addition, the EC50 in the series with RS4-11 is 6 nM; with MOLT-4, more than 5000 nM.

As for `Cn1ccc(C(=O)N[C@H]2CCCCC/C=C\[C@@H]3C[C@@]3(C(=O)NS(=O)(=O)C3(C)CC3)NC(=O)[C@@H]3C[C@@H](Oc4nc5cc(OC(F)(F)F)ccc5c5ccc(F)cc45)CN3C2=O)n1`, the “Ratio EC50” value in series [29] is listed as “<=10”; in the series on Hepatitis C virus [9], 65; in the series on Hepatitis C virus [10] it was 97; in the series with Hepatitis C virus [11], 0.5; with Hepatitis C virus [12] it was 2; with Hepatitis C virus [18], more than 30. Besides, the EC50 was 0.2 nM in the series on Hepatitis C virus [1]; 7 nM in the series on Hepatitis C virus [2]; 0.1 nM with Hepatitis C virus [3]; 3 nM in the series on Hepatitis C virus [4]; 0.3 to 0.8 nM in the series on Hepatitis C virus [30]; 2 nM in the series on Hepatitis C virus [5]. Also, the values for the EC50 with Hepatitis C virus [6] and in the series on Hepatitis C virus [7] were 3 nM and 0.03 nM, respectively. Further, the half-life was 5 h in series [21], 4.6 h in series [23], 3.2 h in [13] and 4 h in series [15]. Moreover, the clearance is 18.3 mL/min/kg in [22] and 0.167 mL/min/kg in [14]. Besides, the AUC/dose in the series with Rattus norvegicus amounted to 0.4 µg·h/mL; in the series on Canis familiaris [16], 138 µg·h/mL. Also, the bioavailability in [24] is 43%; in series [17], 81%. Moreover, in the series on Canis familiaris [26], the FaFg turned out to be 0.8. This compound yielded a Solubility in [19] of 0.65 µM (≈ 0.565 µg/mL). For the same compound, the Papp in [31] came out at 0.06 ×10⁻⁶ cm/s.
